From patent publication US20080300281A1, “Inhibition of p38 Kinase Activity Using Aryl and Heteroaryl Substituted Heterocyclic Ureas” (priority 1997, published 2008)

melting point: 195 to 198 °C
SMILES: CC(C)(C)c1cc(NC(=O)Nc2cccc(Cl)c2Cl)c(-c2ccncc2)o1 [Entry 38, N-(2-(4-Pyridinyl)-5-tert-butyl-3-furyl)-N′-(2,3-dichlorophenyl)urea]
